Assay results published in the supplement of paper PMC10307832.

Assays:
Experiment in all cases: relative viability (nuclei count vs DMSO), 5 days (fraction); higher = more cells survive
[1] = compound: C[C@]1(O)C[C@@H](c2nc(-c3ccc4ccc(-c5ccccc5)nc4c3)c3c(N)nccn32)C1 [Linsitinib] + CC(=O)Nc1cccc(-n2c(=O)n(C3CC3)c(=O)c3c(Nc4ccc(I)cc4F)n(C)c(=O)c(C)c32)c1 [Trametinib] (partner 0.02 µM)
How it was run: (§1)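 After 5 days of treatment, lung cancer cells in 1536-well plates were fixed and stained in a single step (final 0.05% Triton X-100, 1% formaldehyde, 1 ug/ml Hoechst) and their nuclei counted on 4× images. Treatment had been applied by pin tool the day after seeding as one drug alone or as a fixed anchor-drug dose with five library-drug doses (not always all listed) in √10 steps. Relative viability is the nuclei count of treated wells divided by that of vehicle wells, and values are medians of duplicate plates.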

[2] = compound: C[C@]1(O)C[C@@H](c2nc(-c3ccc4ccc(-c5ccccc5)nc4c3)c3c(N)nccn32)C1 [Linsitinib] + NC(=O)Nc1cc(-c2cccc(F)c2)sc1C(=O)N[C@H]1CCCNC1 [AZD7762] (partner 0.2 µM)
How it was run: as §1

[3] = compound: C[C@]1(O)C[C@@H](c2nc(-c3ccc4ccc(-c5ccccc5)nc4c3)c3c(N)nccn32)C1 [Linsitinib] + O=C(CCCCCCC(=O)Nc1ccccc1)NO [Vorinostat] (partner 1 µM)
How it was run: as §1

[4] = compound: Cc1ccc(C(=O)N(CCCN)[C@@H](c2nc3cc(Cl)ccc3c(=O)n2Cc2ccccc2)C(C)C)cc1 [Ispinesib] + Cc1cc(Nc2cc(N3CCN(C)CC3)nc(Sc3ccc(NC(=O)C4CC4)cc3)n2)n[nH]1 [Tozasertib] (partner 0.1 µM)
How it was run: as §1

| Cell Line | relative viability ([1]; first compound 0.01 µM) | relative viability ([1]; first compound 0.03162 µM) | relative viability ([1]; first compound 0.1 µM) | relative viability ([1]; first compound 1 µM) | relative viability ([2]; first compound 0.01 µM) | relative viability ([2]; first compound 0.03162 µM) | relative viability ([2]; first compound 0.1 µM) | relative viability ([2]; first compound 1 µM) | relative viability ([3]; first compound 0.01 µM) | relative viability ([3]; first compound 0.03162 µM) | relative viability ([3]; first compound 0.1 µM) | relative viability ([3]; first compound 1 µM) | relative viability ([4]; first compound 0.001 µM) | relative viability ([4]; first compound 0.003162 µM) | relative viability ([4]; first compound 0.01 µM) | relative viability ([4]; first compound 0.03162 µM) | relative viability ([4]; first compound 0.1 µM) | relative viability ([1]; first compound 0.3162 µM) | relative viability ([2]; first compound 0.3162 µM) | relative viability ([3]; first compound 0.3162 µM) |
| --- | --- | --- | --- | --- | --- | --- | --- | --- | --- | --- | --- | --- | --- | --- | --- | --- | --- | --- | --- | --- |
| NCI-H650 | 1.04 | 1.06 | 0.902 | 0.87 | 1.01 | 0.801 | 0.922 | 0.905 | 0.438 | 0.359 | 0.432 | 0.394 | 0.738 | 0.712 | 0.77 | 0.742 | 0.426 | – | – | – |
| NCI-H727 | 0.349 | 0.403 | 0.317 | 0.29 | 0.39 | 0.503 | 0.346 | 0.376 | 0.978 | 1.4 | 1.08 | 0.927 | 0.598 | 0.556 | 0.647 | 0.621 | 0.668 | 0.358 | 0.363 | 0.82 |
| NCI-H838 | 0.464 | 0.498 | 0.435 | 0.369 | 0.933 | 0.85 | 0.903 | 0.77 | 0.704 | 0.645 | 0.652 | 0.545 | 0.275 | 0.285 | 0.284 | 0.287 | 0.257 | 0.333 | 0.713 | 0.517 |
| NCI-H1355 | 0.424 | 0.353 | 0.352 | 0.246 | 0.66 | 0.604 | 0.633 | 0.329 | 0.66 | 0.65 | 0.574 | 0.311 | 0.566 | 0.608 | 0.548 | 0.503 | 0.486 | 0.323 | 0.602 | 0.444 |
| NCI-H1395 | 1 | – | 1.05 | 1.03 | 0.373 | – | 0.394 | 0.38 | 0.671 | – | 0.821 | 0.644 | 0.778 | 0.874 | 0.808 | 0.58 | 0.404 | 0.961 | 0.477 | 0.68 |
| NCI-H1437 | 0.518 | 0.518 | 0.519 | 0.352 | 1.15 | 1.16 | 1.11 | 1.1 | 0.815 | 0.709 | 0.851 | 0.626 | 0.449 | 0.442 | 0.434 | 0.378 | 0.272 | 0.34 | 0.964 | 0.618 |
| NCI-H1648 | 0.517 | 0.482 | 0.53 | 0.385 | 0.683 | 0.671 | 0.713 | 0.612 | 0.605 | 0.412 | 0.551 | 0.57 | 0.532 | 0.484 | 0.394 | 0.498 | 0.44 | 0.388 | 0.692 | 0.211 |
| NCI-H1651 | 0.827 | 0.861 | 0.884 | 0.824 | 0.221 | 0.467 | 0.429 | 0.447 | 0.267 | 0.535 | 0.5 | 0.484 | 0.692 | 0.776 | 0.968 | 0.824 | 0.234 | 0.777 | 0.525 | 0.543 |
